From patent US11890299B2, “Ablation agent and methods of use” (HOLOGIC, INC., priority 2019, dated 2024)

Test system: bovine liver (simulated tissue)
Assay: Bolus / chemical ablation test in sample bovine liver tissue
Description: For example, a solid active agent (HAuCl4) may be added to water at room temperature, and mixed for approximately ten (10) minutes, then filtered and ready to use. The active agent (HAuCl4) solution may be stored for up to a year without stability issues. The hydrophilic nature of the solution facilitates the delivery and spread of the active agent (HAuCl4) throughout the entire target tissue/cavity, while avoiding formation of lumps in the solution or patches of tissue without the solution when delivered.
FIGS. 2A-C and FIGS. 3-5 illustrate exemplary ablative effects of the active agent (HAuCl4) 300 when applied to a sample tissue. FIG. 2A illustrates a liquid DI water solution of active agent (HAuCl4) 300, a syringe 400 and a sample bovine liver tissue 500. […] FIG. 2C depicts the ablated tissue 500.
Various tests were performed in sample tissue 500. For example, in some tests the active agent (HAuCl4) 300 (1 ml) was delivered into the tissue 500 having a constant time of exposure (e.g., 2 minutes at room temperature) but the bolus size (ablated volume) was measured under different active agent (HAuCl4) concentrations (FIG. 3). Data contained in FIG. 3 was measured three times and obtained the average value for the graph, as shown. As known in the art, bolus tests are common to understand diffusion and effectiveness of ablative technologies.
In another test, the active agent (HAuCl4) concentration was maintained constant at 0.5% in an injected 1 ml into the sample tissue but the bolus size was measured at different times (FIG. 4). Data reference in FIG. 4 was measured five times and obtained the average value for the graph, as shown. […] Additionally, the bolus size is time dependent but after 3 minutes, 1 ml of 0.5% HAuCl4 DI-water solution stopped the reaction because the solution is not strong enough to penetrate the tissue further. Therefore, the active agent (HAuCl4) chemical ablation is quantity and time dependent.
FIG. 5 illustrates sample tissue ablation profiles measured and characterized for a range of active agent (HAuCl4) concentration (0.10%, 0.25% and 1% of HAuCl4 within 2 minutes, and a variety of bolus sizes). Optimization was performed to select 0.5% of HAuCl4 in order to achieve desirable ablation profile (rage of 4-9 mm ablation depth of tissue). Additional optimization could be performed to achieve shallower profiles (if desired).

Structure (SMILES): [Au+3].[Cl-].[Cl-].[Cl-].[Cl-].[H+] [HAuCl4, chloroauric acid]
- penetration depths in the tissue from the surface of the tissue (0.5% HAuCl4 diluted in water, up to three (3) minutes of exposure): 4-9 mm
- ablation depth of tissue (ablation profile) (0.5% of HAuCl4 selected by optimization): 4-9 mm
- bolus size (ablated volume) versus concentration (1 ml injected, 2 minutes at room temperature, different concentrations (FIG. 3)): increases with the active agent (HAuCl4) concentration
- time after which the reaction stopped (bolus size versus time) (1 ml of 0.5% HAuCl4 DI-water solution (FIG. 4)): 3 min
